Data reported in article PMC8951750, “In Vitro Anticancer and Cancer-Preventive Activity of New Triterpene Glycosides from the Far Eastern Starfish Solaster pacificus” (Marine Drugs, 2022).

Experiments:
[1] = test system: human melanoma cells SK-MEL-2; test: Cell viability, MTS assay, SK-MEL-2; type: cell-based; details: Homo sapiens, SK-MEL-2, 24 h, MTS assay, 24 h; read-out: IC50, cell viability SK-MEL-2
Method: (§1) MTS assay was used to measure the cell viability of tested normal and cancer cells. Cells were seeded into 96-well plates (“Jet Biofil”, Guangzhou, China) at density of 1.0 × 10^4/200 µL for 24 h at 37 °C in a 5% CO2 incubator. Then, cell monolayer was treated either with DMSO (control) or various concentrations of the triterpene glycosides 1–9 from S. pacificus (0.1, 0.5, 2.5, 12.5, 62.5 µM) in fresh appropriate culture medium for 24 h. Subsequently, the cells were incubated with 15 µL of 3-(4,5-dimethylthiazol-2-yl)-5-(3-carboxymethoxyphenyl)-2-(4-sulfophenyl)-2H-tetrazolium (MTS reagent) (“Promega”, Madison, WI, USA) for 3 h, and the absorbance of each well was measured at 490/630 nm using Power Wave XS microplate reader (“BioTek”, Wynusky, VT, USA). The concentration at which the compounds exert half of their maximal inhibitory effect on cell viability (IC50) was calculated by the AAT-Bioquest® online calculator [39]. The selectivity index (SI) was calculated as described previously using the following formula SI = IC50 of the compounds in normal cell (JB6 Cl41)/IC50 of the same compounds in human melanoma cell lines (SK-MEL-2, SK-MEL-28, or RPMI-7951).

[2] = test system: JB6 Cl41 cells; test: Soft agar assay, EGF-induced neoplastic cell transformation; type: cell-based, mouse; details: Mus musculus, JB6 Cl41, 336 h, compound 0.1 µM, EGF 1 ng/mL, soft agar, 2 weeks, vs positive control; read-out: inhibition of EGF-induced neoplastic transformation of JB6 Cl41 cells
Method: (§2) JB6 Cl41 cells (2.4 × 10^4) were exposed to epidermal growth factor (EGF) (1 ng/mL) or phorbol 12-myristate 13-acetate (TPA) (10 ng/mL) and treated either with DMSO (control) or the triterpene glycosides 1–9 from S. pacificus (0.1, 0.5, and 1 µM) in 1 mL of 0.3% basal medium Eagle (BME) agar containing 10% FBS, 2 mM L-glutamine, and 25 µg/mL gentamicin (agar mix). The cultures were maintained in a humidified atmosphere with 5% CO2 at 37 °C for 14 days, and the cell’s colonies were scored using a microscope, Motic AE 20 (XiangAn, Xiamen, China), and the ImageJ software bundled with 64-bit Java 1.8.0_112 (NIH, Bethesda, MD, USA). To determine the effect of investigated compounds on neoplastic cell transformation induced by ionizing radiation (X-ray or UVB), JB6 Cl41 cells (3 × 10^5/dish) were seeded in 60 mm dishes and cultured for 24 h at 37 °C in 5% CO2 incubator. Then, the cells were exposed to X-rays (X-ray system XPERT 80 (KUB Technologies, Inc, Milford, CT, USA)) at dose of 0.5 Gy or UVB (wavelengths below 312 nm) (Bio-Link UV irradiation system, Vilber, France) at dose of 0.3 J/cm^2 three times a week for 3 weeks. Irradiated JB6 Cl41 cells (2.4 × 10^4) were treated either with DMSO (control) or the triterpene glycosides 1–9 from S. pacificus (0.1, 0.5, and 1 µM) in 1 mL of agar mix. The cultures were maintained in a humidified atmosphere with 5% CO2 at 37 °C for 14 days, and the cell’s colonies were scored using a microscope, Motic AE 20 (XiangAn, Xiamen 361101, China), and the ImageJ software bundled with 64-bit Java 1.8.0_112 (NIH, Bethesda, MD, USA).

[3] = test system: JB6 Cl41 cells; test: Soft agar assay, UVB-induced neoplastic cell transformation; type: cell-based, mouse; details: compound 0.1 µM, UVB 0.3 J/cm^2 three times a week for 3 weeks, soft agar
Method: as §2

[4] = test system: SK-MEL-2 cells; test: Soft agar assay, colony formation of cancer cells; type: cell-based, human; details: compound 0.1 µM, 14 days
Method: SK-MEL-2 cells (2.4 × 10^4) were treated either with DMSO (control) or the triterpene glycosides 1–9 from S. pacificus (0.1 µM) in 1 mL of agar mix. After 14 days, colonies of cancer cells were scored as described above.

[5] = test system: human melanoma cells SK-MEL-28; test: Cell viability, MTS assay, SK-MEL-28; type: cell-based
Method: as §1

[6] = test system: JB6 Cl41 cells; test: Soft agar assay, X-ray-induced neoplastic cell transformation; type: cell-based, mouse; details: Mus musculus, JB6 Cl41, 504 h; compound 0.1 µM, X-rays 0.5 Gy three times a week for 3 weeks, soft agar; read-out: inhibition of X-ray-induced cell transformation (JB6 Cl41 colonies formation)
Method: as §2

[7] = test system: non-cancerous mouse epidermal cells JB6 Cl41; test: Cell viability, MTS assay, JB6 Cl41; type: cell-based; details: Mus musculus, JB6 Cl41, 24 h, MTS assay, 24 h, normal cells; read-out: IC50, cell viability JB6 Cl41
Method: as §1

[8] = test system: JB6 Cl41 cells; test: Soft agar assay, TPA-induced neoplastic cell transformation; type: cell-based, mouse; details: Mus musculus, JB6 Cl41, 336 h, compound 0.1 µM, TPA 10 ng/mL, soft agar, 2 weeks, vs positive control; read-out: inhibition of TPA-induced neoplastic transformation of JB6 Cl41 cells
Method: as §2

[9] = test system: human melanoma cells RPMI-7951; test: Cell viability, MTS assay, RPMI-7951; type: cell-based; details: Homo sapiens, RPMI-7951, 24 h, MTS assay, 24 h; read-out: IC50, cell viability RPMI-7951
Method: as §1

[10] = test system: Human erythrocytes (O(I)+); test: Hemolysis assay; type: cell-based; details: 1 h, 37 °C, PBS pH 7.4
Method: Human erythrocytes (O(I)+) were obtained from Vladivostok blood transfusion station. Erythrocytes were centrifuged with PBS (pH 7.4) for 5 min at 4 °C by 450× g on a LABOFUGE 400R (Heraeus, Hanau, Germany) centrifuge three times. Then, the residue of erythrocytes was resuspended in ice-cold PBS (pH 7.4) to a final optical density of 2.0 at 700 nm and kept on ice. For the hemolytic assay, 180 µL of erythrocyte suspension was mixed with 20 µL of Cucumarioside A2-2 (positive control) and investigated compounds at concentrations range of 0.1, 0.5, 1, 5, 10 µM in V-bottom 96-well plates. After 1 h of incubation at 37 °C, plates were centrifuged at 900× g for 10 min on an LMC-3000 (Biosan, Riga, Latvia) laboratory centrifuge. Then, we carefully selected 100 µL of supernatant and transferred it to new flat plates, respectively. Lysis of erythrocytes was determined by measuring the concentration of hemoglobin in the supernatant with a microplate photometer Multiskan FC (Thermo Fisher Scientific, Waltham, MA, USA) at 570 nm. The effective dose causing 50% of erythrocytes hemolysis (ED50) was calculated using the computer program SigmaPlot 10.0. All experiments were made in triplicate, p < 0.01.

[11] = test system: colorectal carcinoma HT-29 cells; details: non-toxic concentration of 0.5 μM; cited from earlier work
[12] = test system: melanoma RPMI-7951 cells; details: non-toxic concentration of 0.5 μM; cited from earlier work
[13] = test system: breast cancer MDA-MB-231 cells; details: non-toxic concentration of 0.5 μM; cited from earlier work

Compound	IC50 [1]	inhibition at 0.1 µM [2]	inhibition of UVB-induced neoplastic cell transformation (decrease of colonies number) [3]	decrease of colonies number of SK-MEL-2 cells (colony formation) [4]	IC50 ([5]; Homo sapiens, SK-MEL-28, 24 h, MTS assay, 24 h, read-out: IC50, cell viability SK-MEL-28)	SI (selectivity index) SK-MEL-28 ([5]; IC50 JB6 Cl41 / IC50 SK-MEL-28)	inhibition at 0.1 µM [6]	IC50 [7]	inhibition at 0.1 µM [8]	IC50 [9]	ED50, effective dose causing 50% of erythrocytes hemolysis [10]	suppression of colony formation of HT-29 cells [11]	suppression of colony formation of RPMI-7951 cells [12]	suppression of colony formation of MDA-MB-231 cells [13]
C=C(C)C1C2CC3(C)C4=CCC5C(C)(C)C(OC6OCC(O)C(O)C6OC6OC(C)C(OC7OC(CO)C(O)C(O)C7O)C(O)C6OC6OCC(O)C(O)C6O)CCC5(C)C4CCC13C(=O)O2 [Compound 8, 3β-O-{β-D-glucopyranosyl-(1→4)-[β-D-xylopyranosyl-(1→2)]-β-D-quinovopyranosyl-(1→2)-β-D-xylopyranosyl}-23,24,25,26,27-pentanor-5α-lanosta-7,20(22)-diene-18(16)-lactone]	> 50 µM	10%	not effective	3%	42 ± 0.4 µM	0.8	< 15%	32.8 ± 2.8 µM	20%	> 50 µM	6.16 ± 0.05 µM	–	–	–
CO[C@@H]1[C@@H](O)[C@H](O[C@@H]2[C@@H](O)[C@H](O[C@H]3[C@H](O)[C@@H](O[C@@H]4OC[C@@H](O)[C@H](O)[C@H]4O)[C@H](O[C@H]4[C@H](O[C@H]5CC[C@]6(C)[C@@H]7CCC89C(=O)O[C@@](C)(/C=C\C=C(C)C)[C@H]8[C@@H](OC(C)=O)C[C@@]9(C)C7=CC[C@H]6C5(C)C)OC[C@@H](O)[C@@H]4O)O[C@@H]3C)O[C@H](CO)[C@H]2O)OC[C@H]1O (some centres unmarked) [cucumarioside C1]	–	–	–	–	–	–	–	–	–	–	–	almost completely suppressed	almost completely suppressed	almost completely suppressed
COC1C(O)COC(OC2C(O)C(CO)OC(OC3C(C)OC(OC4C(OC5CCC6(C)C7CCC89C(=O)OC(C)(/C=C/C=C(C)C)C8C(OC(C)=O)CC9(C)C7=CCC6C5(C)C)OCC(O)C4O)C(OC4OCC(O)C(O)C4O)C3O)C2O)C1O (centres unmarked) [cucumarioside C2]	–	–	–	–	–	–	–	–	–	–	–	almost completely suppressed	almost completely suppressed	almost completely suppressed
pacificusoside C	–	–	–	–	–	–	–	–	–	–	–	almost completely suppressed	almost completely suppressed	almost completely suppressed
